US5135932A, “2-hydroxypropylamino-alkyl-benzimidazoly-5-yl derivatives and their use in the treatment of heart disease” (Dr. Karl Thomae GmbH, priority 1989, dated 1992)

Key:
[1] = Antiadrenergic activity: shift of isoprenalin dose-activity curves in guinea-pigs (pA2); format: in vivo, guinea-pig; details: averages from 2 to 3 tests; for pA2 heart rate: against heart rate-increasing activity of isoprenalin; for pA2 inotropia: against inotropic activity of isoprenalin (LV-dP/dtmax)
Procedure: (§1) Cardiotonic effect with antiadrenergic activity
(§2) Guinea-pigs (Dunkin-Hartley-Pirbright, male, 450-600 g) were anaesthetised with hexobarbital-sodium (150 mg/kg i.p.). After the animals had become unconscious, a tracheal cannula was inserted and the animals were pitched (van Meel, J. Pharmacol. Methods 31 (1): 1-11 (1985)). The animals were then immediately artificially respirated using a breathing pump. The left ventricular pressure (LVP) was measured with a Millar PR-249 catheter-tip manometer inserted into the left ventricle through the left carotid artery. This pressure signal was differentiated electronically (LV-dP/dtmax) and used as a parameter for inotropia. The arterial blood pressure was recorded by a cannula in the right carotid artery using a Bell & Howell pressure recorder. The heart rate was also measured. The substances were administered through a cannula in the jugular vein.
(§3) The test substances were administered to three animals cumulatively in four doses (0.1 to 3 mg/kg) and the effects on blood pressure, heart rate and LV-dP/dtmax were measured. Three minutes after the last dose of the test substance, isoprenalin was administered intravenously in increasing doses. In this way, a cumulative dose-activity correlation was obtained for isoprenalin in the presence of the test substance. The parameters measured were the increase in heart rate and the LV-dP/dtmax. These dose-activity curves were compared with standard curves for isoprenalin without the test substances. The shift to the right of the dose-activity curves for isoprenalin brought about by the test substances were determined graphically and corresponding pA2 values for the test substances were calculated. (see Tenakin in "Pharmacologic Analysis of Drug Receptor Interaction", Rawen Press 1987, pages 211-212).
(§4) The Table which follows contains the averages from 2 to 3 tests: […]

[2] = biological target: T1, β2 adreno receptor (rat lungs) (Rattus norvegicus, UniProt P10608); test: Affinity for β-adreno receptors: inhibition of 3H-CGP 12177 binding, receptor preparations from rat lungs (β2); details: 200 pM 3H-CGP 12177
T1 construct: rat lungs (β2); from tissue; host or cells: rat lung membrane preparation
T1 sequence (P10608 whole entry): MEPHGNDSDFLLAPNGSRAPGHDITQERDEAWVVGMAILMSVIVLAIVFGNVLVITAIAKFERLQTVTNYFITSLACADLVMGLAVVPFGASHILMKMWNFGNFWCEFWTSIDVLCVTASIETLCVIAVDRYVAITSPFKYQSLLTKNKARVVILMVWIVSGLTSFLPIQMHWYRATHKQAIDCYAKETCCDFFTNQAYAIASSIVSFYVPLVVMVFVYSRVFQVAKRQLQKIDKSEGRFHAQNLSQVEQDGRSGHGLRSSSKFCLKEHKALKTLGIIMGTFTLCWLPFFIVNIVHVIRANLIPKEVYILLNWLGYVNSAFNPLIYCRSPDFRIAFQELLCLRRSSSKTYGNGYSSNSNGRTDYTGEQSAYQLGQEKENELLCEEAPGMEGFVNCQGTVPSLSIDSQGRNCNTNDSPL
Procedure: (§5) 1. Affinity for β-adreno recectors
(§6) The inhibitory effect on the binding of ^3 H-CGP 12177 was tested on receptor preparations from rat hearts (β1) and rat lungs (β2). The binding assay was carried out with some modifications according to the method of Dammgen et al. (Drug. Res. 35: 383-390 (1985)). The incubation mixture contained aliquots of the membrane preparation in Tris buffer, increasing concentrations of the potential antagonist as well as 200 pM ^3 H-CGP 12177. The bound and free radioligands were separated after the incubation period by rapid filtration through glass fibre filters. The filter-bound radioactivity was determined in a β counter with a counting yield of about 52%. The non-specific binding was determined in the presence of 10^-5 M propranolol.

[3] = biological target: T2, β1 adreno receptor (rat hearts) (Rattus norvegicus, UniProt P18090); test: Affinity for β-adreno receptors: inhibition of 3H-CGP 12177 binding, receptor preparations from rat hearts (β1); details: 200 pM 3H-CGP 12177
T2 construct: receptor preparations from rat hearts (β1); from tissue; host or cells: rat heart membrane preparation
T2 sequence (P18090 whole entry): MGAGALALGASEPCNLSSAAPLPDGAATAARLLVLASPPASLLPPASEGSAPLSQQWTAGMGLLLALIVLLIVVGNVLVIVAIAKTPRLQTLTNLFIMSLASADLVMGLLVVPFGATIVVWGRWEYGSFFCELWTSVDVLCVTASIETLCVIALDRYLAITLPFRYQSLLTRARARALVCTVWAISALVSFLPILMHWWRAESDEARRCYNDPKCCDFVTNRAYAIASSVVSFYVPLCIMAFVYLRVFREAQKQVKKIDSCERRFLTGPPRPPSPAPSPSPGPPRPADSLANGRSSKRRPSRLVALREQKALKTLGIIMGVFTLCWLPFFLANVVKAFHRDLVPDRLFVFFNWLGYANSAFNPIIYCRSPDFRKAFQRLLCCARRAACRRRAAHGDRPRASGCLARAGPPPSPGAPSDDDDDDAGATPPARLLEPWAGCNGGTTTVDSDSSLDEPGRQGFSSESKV
Procedure: as §5, §6

[4] = test system: Guinea-pigs (Dunkin-Hartley-Pirbright, male); test: Cardiotonic effect: LV-dP/dtmax and heart rate in anaesthetised guinea-pigs; format: in vivo, guinea-pig; details: after a dose of 3 mg/kg i.v., averages from 2 to 3 tests; for change in vivo at 3 mg/kg: Cavia porcellus, iv, read-out: Effects on LV-dP/dtmax % increase
Procedure: as §1, §2, §3, §4

Row | Structure (SMILES) | IC50 [2] [nM] | IC50 [3] [nM] | pA2 heart rate [1] | pA2 inotropia [1] | change in vivo at 3 mg/kg [4] [%] | Effect on heart rate in beats per minute [4] [beats per minute]
1 | O=C1CCC(c2ccc3c(c2)ncn3CCNCC(O)COc2ccc(CCOCC3CCC3)cc2)=NN1 (centres unmarked) [Substance A, 6-[1-[2-[3-(4-(2-cyclobutylmethoxy-ethyl)phenoxy)-2-hydroxy-propylamino]ethyl]benzimidazol-5-yl]-4,5-dihydro-3(2H)-pyridazinone] | 940 | 26 | 8.20 | 6.30 | 50 | -23
2 | CC(C)COCCc1ccc(OCC(O)CNC(C)(C)Cn2cnc3cc(C4=NNC(=O)CC4)ccc32)cc1 (centres unmarked) [Substance I, 6-[1-[2-[3-(4-(2-isobutoxyethyl)phenoxy)-2-hydroxypropylamino]-2,2-dimethyl-ethyl]benzimidazol-5-yl]-4,5-dihydro-3(2H)-pyridazinone] | 65 | 12 | 7.89 | 7.17 | 58 | -59
3 | CC(C)OCCOCc1ccc(OCC(O)CNCCOc2ccc(C3=NNC(=O)CC3)cc2)cc1 (centres unmarked) [Substance F, 6-[4-[2-[3-(4-((2-isopropoxyethoxy)methyl)phenoxy)-2-hydroxy-propylamino]ethoxy]phenyl]-4,5-dihydro-3(2H)-pyridazinone] | 7200 | 24 | 6.96 | 7.14 | 37 | -94
4 | O=C1CCC(c2ccc(OCCNCC(O)COc3ccc(CCOCC4CC4)cc3)cc2)=NN1 (centres unmarked) [Substance C, 6-[4-[2-[3-(4-(2-cyclopropylmethoxy-ethyl)phenoxy)-2-hydroxy-propylamino]ethoxy]phenyl]-4,5-dihydro-3(2H)-pyridazinone] | 1200 | 29 | 7.22 | 6.76 | 25 | -51
5 | O=C1CCC(c2ccc(OCCNCC(O)COc3ccc(CCOCC4CCC4)cc3)cc2)=NN1 (centres unmarked) [Substance E, 6-[4-[2-[3-(4-(2-cyclobutylmethoxy-ethyl)phenoxy)-2-hydroxy-propylamino]ethoxy]phenyl]-4,5-dihydro-3(2H)-pyridazinone] | 1100 | 15 | 7.23 | 6.19 | 49 | -71
6 | O=c1ccc(-c2ccc(OCCNCC(O)COc3ccc(CCOCC4CC4)cc3)cc2)n[nH]1 (centres unmarked) [Substance D, 6-[4-[2-[3-(4-(2-cyclopropylmethoxyethyl)phenoxy)-2-hydroxy-propylamino]ethoxy]phenyl]-3(2H)-pyridazinone] | 1000 | 22 | 7.24 | 6.67 | 51 | -49
7 | O=C1CCC(c2ccc3c(c2)ncn3CCNCC(O)COc2ccc(CCOCC3CC3)cc2)=NN1 (centres unmarked) [Substance B, 6-[1-[2-[3-(4-(2-cyclopropylmethoxy-ethyl)phenoxy)-2-hydroxy-propylamino]ethyl]benzimidazol-5-yl]-4,5-dihydro-3(2H)-pyridazinone] | 2300 | 34 | 6.95 | 6.83 | 51 | -47
8 | CC(C)COCCc1ccc(OCC(O)CNCCCn2cnc3cc(C4=NNC(=O)CC4)ccc32)cc1 (centres unmarked) [Substance H] | 19 | 10 | > 9.0 | 8.28 | 10 | -90
9 | CC(C)OCCOCc1ccc(OCC(O)CNCCOc2ccc(-c3ccc(=O)[nH]n3)cc2)cc1 (centres unmarked) [Substance G, 6-[4-[2-[3-(4-(2-isopropoxyethoxymethyl)phenoxy)-2-hydroxypropylamino]ethoxy]phenyl]-3(2H)-pyridazinone] | 4400 | 53 | 6.38 | 6.32 | 38 | -36

Further lines, with some results ahead:

Row | IC50 [2] [nM] | IC50 [3] [nM] | Structure (SMILES) | pA2 heart rate [1] | pA2 inotropia [1] | change in vivo at 3 mg/kg [4] [%] | Effect on heart rate in beats per minute [4] [beats per minute]
10 | 600 | 7.6 | CC(C)OCCOCc1ccc(OCC(O)CNCCOc2ccc(C3=NNC(=O)CC3)cc2Cl)cc1 (centres unmarked) [Substance L, 6-[4-[2-[3-(4-(2-isopropoxyethoxy-methyl)phenoxy)-2-hydroxy-propylamino]ethoxy]-3-chloro-phenyl]-4,5-dihydro-3(2H)-pyridazinone] | 6.77 | 6.23 | 66 | -51
11 | 350 | 10 | CC(C)OCCOCc1ccc(OCC(O)CNCCCOc2ccc(C3=NNC(=O)CC3)cc2Cl)cc1 (centres unmarked) [Substance K, 6-[4-[3-[3-(4-(2-isopropoxyethoxy-methyl)phenoxy)-2-hydroxy-propylamino]propoxy]-3-chloro-phenyl]-4,5-dihydro-3(2H)-pyridazinone] | 7.52 | 6.56 | 11 | -121
12 | 210 | 2 | Cc1cc(-c2ccc(=O)[nH]n2)ccc1OCCNCC(O)COc1ccc(COCCOC(C)C)cc1 (centres unmarked) [Substance Q, 6-[4-[2-[3-(4-(2-isopropoxyethoxy-methyl)phenoxy)-2-hydroxy-propylamino]ethoxy]-3-methyl-phenyl]-3(2H)-pyridazinone] | – | – | – | –
13 | 520 | 2.6 | Cc1cc(C2=NNC(=O)CC2)ccc1OCCNCC(O)COc1ccc(COCCOC(C)C)cc1 (centres unmarked) [Substance N, 6-[4-[2-[3-(4-(2-isopropoxyethoxy-methyl)phenoxy)-2-hydroxy-propylamino]ethoxy]-3-methyl-phenyl]-4,5-dihydro-3(2H)-pyridazinone] | 8.34 | 7.34 | 34 | -94
14 | 100 | 0.5 | Cc1cc(C2=NNC(=O)CC2)ccc1OCCNCC(O)COc1ccc(CCOCC2CC2)cc1 (centres unmarked) [Substance M, 6-[4-[2-[3-(4-(2-cyclopropylmethoxy-ethyl)phenoxy)-2-hydroxy-propylamino]ethoxy]-3-methyl-phenyl]-4,5-dihydro-3(2H)-pyridazinone] | 8.20 | 7.05 | 51 | -64
15 | 220 | 6 | Cc1cc(C2=NNC(=O)CC2)ccc1OCCCNCC(O)COc1ccc(CCOCC2CCC2)cc1 (centres unmarked) [Substance P, 6-[4-[3-[3-(4-(2-cyclobutylmethoxy-ethyl)phenoxy)-2-hydroxy-propylamino]propoxy]-3-methyl-phenyl]-4,5-dihydro-3(2H)-pyridazinone] | 6.45 | 5.31 | 69 | -61
16 | 66 | 59 | Cc1cc(C2=NNC(=O)CC2)ccc1OCCCNCC(O)COc1ccc(CCOCC2CC2)cc1 (centres unmarked) [Substance O, 6-[4-[3-[3-(4-(2-cyclopropylmethoxy-ethyl)phenoxy)-2-hydroxy-propylamino]propoxy]-3-methyl-phenyl]-4,5-dihydro-3(2H)-pyridazinone] | 7.70 | 6.44 | 38 | -116
